Results reported in ChEMBL document CHEMBL5291721, “A preclinical secondary pharmacology resource illuminates target-adverse drug reaction associations of marketed drugs” (Nat Commun, 2023).

Columns and labels:
[1] = biological target: Bile salt export pump (Homo sapiens, UniProt O95342); assay type: functional
[2] = biological target: T1, Alpha-1A adrenergic receptor (Homo sapiens, UniProt P35348); assay type: functional, cell-based
T1 sequence (P35348 whole entry): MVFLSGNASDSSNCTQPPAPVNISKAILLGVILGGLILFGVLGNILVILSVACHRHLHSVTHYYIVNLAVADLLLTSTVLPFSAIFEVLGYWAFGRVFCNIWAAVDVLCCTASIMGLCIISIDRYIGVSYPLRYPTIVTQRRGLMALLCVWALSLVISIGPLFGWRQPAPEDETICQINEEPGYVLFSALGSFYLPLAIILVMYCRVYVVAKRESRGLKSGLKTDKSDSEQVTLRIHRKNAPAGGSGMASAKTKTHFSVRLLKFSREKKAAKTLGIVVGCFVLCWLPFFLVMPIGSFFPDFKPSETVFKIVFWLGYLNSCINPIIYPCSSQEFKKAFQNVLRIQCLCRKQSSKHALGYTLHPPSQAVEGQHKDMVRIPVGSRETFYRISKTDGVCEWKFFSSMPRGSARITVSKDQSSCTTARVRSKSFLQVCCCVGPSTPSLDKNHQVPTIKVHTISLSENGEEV

[3] = biological target: T2, Alpha-2B adrenergic receptor (Homo sapiens, UniProt P18089)
T2 sequence (P18089 whole entry): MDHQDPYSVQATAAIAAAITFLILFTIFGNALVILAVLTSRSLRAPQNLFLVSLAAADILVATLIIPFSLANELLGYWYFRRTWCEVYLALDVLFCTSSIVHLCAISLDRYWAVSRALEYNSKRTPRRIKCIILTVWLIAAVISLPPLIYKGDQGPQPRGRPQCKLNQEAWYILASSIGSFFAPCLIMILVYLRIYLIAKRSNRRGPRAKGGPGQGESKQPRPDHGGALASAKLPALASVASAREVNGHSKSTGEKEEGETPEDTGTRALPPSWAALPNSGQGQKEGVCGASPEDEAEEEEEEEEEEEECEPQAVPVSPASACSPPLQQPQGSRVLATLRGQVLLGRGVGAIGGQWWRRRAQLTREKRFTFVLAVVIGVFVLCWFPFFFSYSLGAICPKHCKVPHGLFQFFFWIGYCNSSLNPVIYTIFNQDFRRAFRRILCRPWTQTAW

[4] = biological target: T3, Alpha-2C adrenergic receptor (Homo sapiens, UniProt P18825); assay type: functional
T3 sequence (P18825 whole entry): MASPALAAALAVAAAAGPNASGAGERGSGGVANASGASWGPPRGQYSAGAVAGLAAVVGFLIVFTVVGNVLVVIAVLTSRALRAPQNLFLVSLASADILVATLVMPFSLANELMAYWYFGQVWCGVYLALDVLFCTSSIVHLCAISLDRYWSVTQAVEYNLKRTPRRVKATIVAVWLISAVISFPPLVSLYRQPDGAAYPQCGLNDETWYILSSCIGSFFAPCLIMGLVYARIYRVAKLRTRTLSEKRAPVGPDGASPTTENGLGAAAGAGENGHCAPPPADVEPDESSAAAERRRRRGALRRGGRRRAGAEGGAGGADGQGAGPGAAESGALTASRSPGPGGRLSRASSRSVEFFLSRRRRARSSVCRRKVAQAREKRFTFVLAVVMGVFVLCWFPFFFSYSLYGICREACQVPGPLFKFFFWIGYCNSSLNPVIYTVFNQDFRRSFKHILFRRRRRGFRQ

[5] = biological target: Gamma-aminobutyric acid receptor subunit alpha-1/alpha-2/beta-2/gamma-2 (Homo sapiens, UniProt P14867+P18507+P47869+P47870); assay type: functional, cell-based
Gamma-aminobutyric acid receptor subunit alpha-1/alpha-2/beta-2/gamma-2, sequence (P14867 whole entry): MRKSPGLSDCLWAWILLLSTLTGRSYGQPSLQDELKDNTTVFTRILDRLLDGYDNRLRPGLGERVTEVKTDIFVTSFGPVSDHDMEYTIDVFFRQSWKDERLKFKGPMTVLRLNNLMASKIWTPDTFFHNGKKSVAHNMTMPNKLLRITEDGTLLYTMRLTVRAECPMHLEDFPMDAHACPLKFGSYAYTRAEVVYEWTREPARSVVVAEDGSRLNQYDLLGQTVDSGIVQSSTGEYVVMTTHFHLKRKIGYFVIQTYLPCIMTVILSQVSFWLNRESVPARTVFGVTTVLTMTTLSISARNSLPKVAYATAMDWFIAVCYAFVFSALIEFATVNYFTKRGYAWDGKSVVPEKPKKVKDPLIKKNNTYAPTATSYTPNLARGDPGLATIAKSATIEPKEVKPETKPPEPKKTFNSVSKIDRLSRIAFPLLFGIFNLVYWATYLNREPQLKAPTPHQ
Gamma-aminobutyric acid receptor subunit alpha-1/alpha-2/beta-2/gamma-2, sequence (P47870 whole entry): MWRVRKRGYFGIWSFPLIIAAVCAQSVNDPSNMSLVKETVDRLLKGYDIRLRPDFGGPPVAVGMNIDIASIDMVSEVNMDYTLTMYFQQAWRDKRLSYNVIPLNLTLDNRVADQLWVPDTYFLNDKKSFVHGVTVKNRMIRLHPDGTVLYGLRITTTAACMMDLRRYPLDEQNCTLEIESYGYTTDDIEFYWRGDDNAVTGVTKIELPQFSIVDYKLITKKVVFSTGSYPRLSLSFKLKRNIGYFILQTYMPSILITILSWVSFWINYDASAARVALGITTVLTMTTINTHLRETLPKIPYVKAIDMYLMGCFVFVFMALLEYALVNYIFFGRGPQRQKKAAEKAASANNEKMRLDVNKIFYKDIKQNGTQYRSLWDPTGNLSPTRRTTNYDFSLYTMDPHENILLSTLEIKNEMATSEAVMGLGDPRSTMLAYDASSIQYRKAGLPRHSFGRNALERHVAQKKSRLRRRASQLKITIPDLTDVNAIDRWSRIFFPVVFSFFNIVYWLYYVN
Gamma-aminobutyric acid receptor subunit alpha-1/alpha-2/beta-2/gamma-2, sequence (P18507 whole entry): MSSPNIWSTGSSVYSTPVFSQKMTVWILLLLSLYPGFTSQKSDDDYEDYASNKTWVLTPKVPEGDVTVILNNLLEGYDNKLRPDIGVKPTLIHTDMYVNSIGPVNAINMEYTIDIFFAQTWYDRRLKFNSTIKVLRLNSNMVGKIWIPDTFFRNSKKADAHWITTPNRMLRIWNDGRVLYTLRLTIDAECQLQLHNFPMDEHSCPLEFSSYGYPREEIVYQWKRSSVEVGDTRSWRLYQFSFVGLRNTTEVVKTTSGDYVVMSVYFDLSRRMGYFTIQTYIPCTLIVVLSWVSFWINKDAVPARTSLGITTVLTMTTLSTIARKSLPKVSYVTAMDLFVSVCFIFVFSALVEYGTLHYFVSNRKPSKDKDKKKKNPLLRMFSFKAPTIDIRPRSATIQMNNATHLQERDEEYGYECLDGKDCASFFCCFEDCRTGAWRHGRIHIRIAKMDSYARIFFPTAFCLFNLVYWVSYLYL
Gamma-aminobutyric acid receptor subunit alpha-1/alpha-2/beta-2/gamma-2, sequence (P47869 whole entry): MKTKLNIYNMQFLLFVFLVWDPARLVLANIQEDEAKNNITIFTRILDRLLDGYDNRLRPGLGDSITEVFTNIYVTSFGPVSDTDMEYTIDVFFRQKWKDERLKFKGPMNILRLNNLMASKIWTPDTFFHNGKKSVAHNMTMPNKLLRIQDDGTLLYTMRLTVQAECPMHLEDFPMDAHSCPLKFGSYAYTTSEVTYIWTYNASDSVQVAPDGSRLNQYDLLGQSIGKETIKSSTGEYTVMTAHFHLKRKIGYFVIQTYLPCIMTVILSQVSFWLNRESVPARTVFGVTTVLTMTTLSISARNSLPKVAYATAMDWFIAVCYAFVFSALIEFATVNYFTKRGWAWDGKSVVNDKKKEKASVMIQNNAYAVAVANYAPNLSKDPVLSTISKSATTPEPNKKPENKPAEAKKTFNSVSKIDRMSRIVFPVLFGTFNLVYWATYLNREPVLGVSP

[6] = biological target: Gamma-aminobutyric acid receptor subunit alpha-1 (Rattus norvegicus, UniProt P62813); assay type: functional
[7] = biological target: Glucagon receptor (Homo sapiens, UniProt P47871)
Glucagon receptor, sequence (P47871 whole entry): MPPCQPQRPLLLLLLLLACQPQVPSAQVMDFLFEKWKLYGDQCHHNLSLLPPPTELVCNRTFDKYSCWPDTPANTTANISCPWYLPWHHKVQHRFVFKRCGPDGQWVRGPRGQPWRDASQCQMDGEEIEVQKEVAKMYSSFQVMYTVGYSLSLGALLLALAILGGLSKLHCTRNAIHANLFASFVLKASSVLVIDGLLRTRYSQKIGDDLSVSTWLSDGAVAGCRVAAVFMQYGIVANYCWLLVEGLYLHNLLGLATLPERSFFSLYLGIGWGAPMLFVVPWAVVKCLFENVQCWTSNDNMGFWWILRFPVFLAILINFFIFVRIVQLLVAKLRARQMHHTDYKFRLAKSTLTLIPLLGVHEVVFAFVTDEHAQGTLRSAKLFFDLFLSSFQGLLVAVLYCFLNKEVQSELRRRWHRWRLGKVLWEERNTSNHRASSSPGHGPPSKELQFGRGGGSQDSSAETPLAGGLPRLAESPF

[8] = biological target: T4, 5-hydroxytryptamine receptor 2C (Homo sapiens, UniProt P28335)
T4 sequence (P28335 whole entry): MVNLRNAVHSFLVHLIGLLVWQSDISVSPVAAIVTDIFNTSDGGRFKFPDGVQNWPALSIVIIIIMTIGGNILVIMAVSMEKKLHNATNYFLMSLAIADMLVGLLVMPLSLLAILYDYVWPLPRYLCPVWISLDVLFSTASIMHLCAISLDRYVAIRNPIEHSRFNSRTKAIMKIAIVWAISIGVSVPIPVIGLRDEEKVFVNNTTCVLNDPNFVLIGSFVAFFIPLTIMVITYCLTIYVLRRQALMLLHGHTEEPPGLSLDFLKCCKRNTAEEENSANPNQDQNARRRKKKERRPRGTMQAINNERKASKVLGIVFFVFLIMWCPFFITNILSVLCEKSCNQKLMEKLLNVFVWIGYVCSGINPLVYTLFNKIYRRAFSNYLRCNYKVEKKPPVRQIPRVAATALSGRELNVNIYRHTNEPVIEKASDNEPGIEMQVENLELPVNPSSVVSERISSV

[9] = biological target: T5, 5-hydroxytryptamine receptor 3A (Homo sapiens, UniProt P46098); assay type: functional
T5 sequence (P46098 whole entry): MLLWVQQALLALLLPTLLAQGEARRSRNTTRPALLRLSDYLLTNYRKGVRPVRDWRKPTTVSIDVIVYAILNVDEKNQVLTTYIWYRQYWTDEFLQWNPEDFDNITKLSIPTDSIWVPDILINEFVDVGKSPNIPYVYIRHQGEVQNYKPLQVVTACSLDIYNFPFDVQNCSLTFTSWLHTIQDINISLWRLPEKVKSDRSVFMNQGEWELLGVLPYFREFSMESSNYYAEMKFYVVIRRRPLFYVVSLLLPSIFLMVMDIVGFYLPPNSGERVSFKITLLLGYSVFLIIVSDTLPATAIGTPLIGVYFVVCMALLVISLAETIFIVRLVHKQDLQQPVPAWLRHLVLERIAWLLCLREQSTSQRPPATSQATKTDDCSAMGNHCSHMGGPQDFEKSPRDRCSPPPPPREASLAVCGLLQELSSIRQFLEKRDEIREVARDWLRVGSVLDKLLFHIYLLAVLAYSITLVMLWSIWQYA

[10] = biological target: Melanocortin receptor 3 (Homo sapiens, UniProt P41968)
Melanocortin receptor 3, sequence (P41968 whole entry): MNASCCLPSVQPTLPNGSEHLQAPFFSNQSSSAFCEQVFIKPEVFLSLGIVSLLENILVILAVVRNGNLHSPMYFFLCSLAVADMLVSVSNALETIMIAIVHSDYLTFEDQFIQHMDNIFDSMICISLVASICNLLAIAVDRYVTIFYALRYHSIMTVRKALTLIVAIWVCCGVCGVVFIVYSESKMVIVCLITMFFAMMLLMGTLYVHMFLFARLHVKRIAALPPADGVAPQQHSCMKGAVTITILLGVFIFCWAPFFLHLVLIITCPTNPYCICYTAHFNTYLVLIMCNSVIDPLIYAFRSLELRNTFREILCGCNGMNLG

[11] = biological target: Sodium-dependent noradrenaline transporter (Homo sapiens, UniProt P23975)
Sodium-dependent noradrenaline transporter, sequence (P23975 whole entry): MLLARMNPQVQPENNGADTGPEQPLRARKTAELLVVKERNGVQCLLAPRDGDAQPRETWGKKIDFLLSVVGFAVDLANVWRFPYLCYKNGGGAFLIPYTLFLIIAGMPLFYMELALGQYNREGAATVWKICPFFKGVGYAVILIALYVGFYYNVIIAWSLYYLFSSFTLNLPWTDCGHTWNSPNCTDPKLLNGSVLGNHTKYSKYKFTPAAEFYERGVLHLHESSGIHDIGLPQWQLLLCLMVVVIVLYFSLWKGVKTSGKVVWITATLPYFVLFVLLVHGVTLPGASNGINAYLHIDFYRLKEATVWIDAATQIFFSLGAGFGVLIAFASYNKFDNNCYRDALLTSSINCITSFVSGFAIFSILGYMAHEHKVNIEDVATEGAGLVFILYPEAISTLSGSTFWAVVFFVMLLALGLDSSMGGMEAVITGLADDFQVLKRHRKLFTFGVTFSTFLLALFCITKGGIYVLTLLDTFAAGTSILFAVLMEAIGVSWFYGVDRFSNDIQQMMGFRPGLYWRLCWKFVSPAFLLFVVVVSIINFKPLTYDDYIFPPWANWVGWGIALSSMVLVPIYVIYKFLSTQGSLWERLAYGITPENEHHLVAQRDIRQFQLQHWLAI

[12] = biological target: Mu-type opioid receptor (Homo sapiens, UniProt P35372)
[13] = biological target: 5-hydroxytryptamine receptor 2A (Homo sapiens, UniProt P28223); assay type: functional, cell-based
[14] = biological target: T1, Alpha-1A adrenergic receptor; assay type: functional, cell-based; remark: listed apart in the source
Further: assay procedure not described here.

Bile salt export pump, sequence (O95342 whole entry): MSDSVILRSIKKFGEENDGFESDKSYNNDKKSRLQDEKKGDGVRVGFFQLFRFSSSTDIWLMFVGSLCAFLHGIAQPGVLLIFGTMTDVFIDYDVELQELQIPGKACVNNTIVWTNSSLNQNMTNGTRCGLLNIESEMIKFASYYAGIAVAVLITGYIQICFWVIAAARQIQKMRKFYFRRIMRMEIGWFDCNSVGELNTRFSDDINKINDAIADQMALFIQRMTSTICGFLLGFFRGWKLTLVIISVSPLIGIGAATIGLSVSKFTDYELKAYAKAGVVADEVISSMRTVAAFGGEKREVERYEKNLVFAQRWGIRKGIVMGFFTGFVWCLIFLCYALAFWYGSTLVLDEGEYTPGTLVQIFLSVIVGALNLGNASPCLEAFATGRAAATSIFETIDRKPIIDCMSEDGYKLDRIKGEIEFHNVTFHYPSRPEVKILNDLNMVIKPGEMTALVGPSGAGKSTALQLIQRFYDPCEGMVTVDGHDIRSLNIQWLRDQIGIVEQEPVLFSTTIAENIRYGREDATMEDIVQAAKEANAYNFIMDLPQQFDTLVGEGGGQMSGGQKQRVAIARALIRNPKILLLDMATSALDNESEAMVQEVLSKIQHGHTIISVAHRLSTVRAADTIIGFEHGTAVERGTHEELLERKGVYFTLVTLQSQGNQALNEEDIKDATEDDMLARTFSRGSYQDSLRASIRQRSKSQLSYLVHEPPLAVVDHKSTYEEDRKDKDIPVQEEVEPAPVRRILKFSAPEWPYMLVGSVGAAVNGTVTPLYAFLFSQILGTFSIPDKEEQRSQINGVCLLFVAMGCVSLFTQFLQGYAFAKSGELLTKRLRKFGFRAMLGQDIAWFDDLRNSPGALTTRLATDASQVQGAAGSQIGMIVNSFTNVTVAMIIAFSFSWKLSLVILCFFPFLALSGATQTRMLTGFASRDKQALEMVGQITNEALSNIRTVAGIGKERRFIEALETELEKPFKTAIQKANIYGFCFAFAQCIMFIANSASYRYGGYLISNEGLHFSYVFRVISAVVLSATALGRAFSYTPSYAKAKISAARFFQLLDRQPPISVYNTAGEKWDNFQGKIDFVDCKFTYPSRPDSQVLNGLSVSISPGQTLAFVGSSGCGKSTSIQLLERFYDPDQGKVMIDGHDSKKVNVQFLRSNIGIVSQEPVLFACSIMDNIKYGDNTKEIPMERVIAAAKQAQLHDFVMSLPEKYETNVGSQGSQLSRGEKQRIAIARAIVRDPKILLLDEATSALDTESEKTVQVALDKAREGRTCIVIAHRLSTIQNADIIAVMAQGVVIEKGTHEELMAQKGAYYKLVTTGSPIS

AC50 [7] | AC50 [12] | SMILES | AC50 [1] | AC50 [2] | AC50 [3] | AC50 [4] | AC50 [5] | AC50 [6] | AC50 [8] | AC50 [9] | AC50 [10] | AC50 [11] | AC50 [13] | AC50 [14]
> 30 µM | > 30 µM | CCOc1nc2cccc(C(=O)O)c2n1Cc1ccc(-c2ccccc2-c2nnn[nH]2)cc1 | 100 µM | > 30 µM | – | > 30 µM | > 30 µM | > 30 µM | 14 µM | > 30 µM | > 30 µM | > 30 µM | – | –
> 10 µM | > 30 µM | Cc1nc(Nc2ncc(C(=O)Nc3c(C)cccc3Cl)s2)cc(N2CCN(CCO)CC2)n1 [DASATINIB] | 22 µM | > 30 µM | > 30 µM | 19 µM | – | – | 14.1 µM | > 30 µM | > 30 µM | 6.3 µM | – | –
> 30 µM | > 30 µM | CCCNC(=O)NS(=O)(=O)c1ccc(Cl)cc1 [CHLORPROPAMIDE] | > 300 µM | > 30 µM | – | > 10 µM | – | > 10 µM | > 30 µM | > 30 µM | > 30 µM | > 30 µM | – | –
> 30 µM | > 30 µM | CC[C@H](C)C(=O)O[C@H]1C[C@@H](C)C=C2C=C[C@H](C)[C@H](CC[C@@H]3C[C@@H](O)CC(=O)O3)[C@H]21 [LOVASTATIN] | 27 µM | > 30 µM | – | > 10 µM | – | > 10 µM | > 30 µM | > 30 µM | > 30 µM | > 10 µM | – | –

SMILES | AC50 [7] | AC50 [12] | AC50 [1] | AC50 [2] | AC50 [3] | AC50 [4] | AC50 [5] | AC50 [6] | AC50 [8] | AC50 [9] | AC50 [10] | AC50 [11] | AC50 [13] | AC50 [14]
CCCc1nc2c(C)cc(-c3nc4ccccc4n3C)cc2n1Cc1ccc(-c2ccccc2C(=O)O)cc1 | > 30 µM | 10.8 µM | 5 µM | > 30 µM | > 30 µM | 12.5 µM | > 30 µM | > 30 µM | > 30 µM | > 30 µM | > 30 µM | > 30 µM | – | –
CCOc1cc([C@@H](CS(C)(=O)=O)N2C(=O)c3cccc(NC(C)=O)c3C2=O)ccc1OC | – | > 30 µM | 139 µM | > 30 µM | > 30 µM | > 30 µM | > 30 µM | > 30 µM | > 30 µM | > 30 µM | > 30 µM | > 30 µM | > 30 µM | –
Cc1ccc(C)c(OCCCC(C)(C)C(=O)O)c1 [GEMFIBROZIL] | > 30 µM | > 30 µM | > 300 µM | > 30 µM | – | > 10 µM | – | > 10 µM | > 30 µM | > 30 µM | > 30 µM | > 10 µM | – | > 30 µM
CC(CN1c2ccccc2Sc2ccccc21)N(C)C (stereo not given) [PROMETHAZINE] | > 30 µM | – | > 300 µM | > 30 µM | – | 3 µM | – | > 10 µM | 0.5 µM | > 30 µM | 31.9 µM | 0.81 µM | – | –
